# Values of other authors as cited in US20250295592A1, “Method for Controlled Release Oral Drug Delivery” (priority 2024, published 2025).
# Like-named read-outs stand apart in the source and are kept apart here.
# [1] = human stomach, acidic gastric contents
Structure (SMILES),absorption from the stomach (in vivo),absorption from the stomach [1]
Cc1cc(=O)n(-c2ccccc2)n1C [antipyrine],readily absorbed,–
CC(=O)Oc1ccccc1C(=O)O [aspirin],–,readily absorbed
C=CCC1(C(C)CCC)C(=O)NC(=O)NC1=O (stereo not shown) [secobarbital],–,readily absorbed
CCCC(C)C1(CC)C(=O)NC(=S)NC1=O (stereo not shown) [thiopental],–,readily absorbed
